Assay results reported in patent US10828262B2, “Biomembrane, closed structure with biomembrane characteristics or cellular compartment derived from natural sources and/or self-assembly techniques, preparation method and applications thereof” (priority 2017, dated 2020).

Experiments:
[1] = Body weight of tumor model mice; format: in vivo, BALB/C nude mouse; conditions: BEL-7402 model nude mice
From the text: (§1) • (1) Inoculate human hepatoma cell line BEL-7402 below back skin of BALB/C nude mouse.

[2] = tested on: human hepatoma cell line BEL-7402; conditions: BALB/C nude mouse
From the text: as §1

[3] = In vivo half-life period of calcitonin after vein injection; design: species or system new zealand white rabbit; conditions: rabbit, injection through vein
[4] = 0.2 ml intraperitoneal injection every day, after 10 d

| Compound | Weight Before treatment [1] | Weight After treatment [1, 4] | Tumor After treatment [2, 4] | Tumor Before treatment ([2]; liver-implanted tumor) | in vivo half-life period [3] |
| --- | --- | --- | --- | --- | --- |
| COc1cccc2c1C(=O)c1c(O)c3c(c(O)c1C2=O)C[C@@](O)(C(=O)CO)C[C@@H]3O[C@H]1C[C@H](N)[C@H](O)[C@H](C)O1 [Adriamycin amycin, adriamycin] | 20.03 g | 20.1 g | 50.17 mm^3 | 42.93 mm^3 |  |
| calcitonin [ordinary calcitonin] |  |  |  |  | 2 h |
